Values belong to the molecule of their own block, whether it stands above or below them.
What was measured:
PDE10A = assay: MicroPET imaging studies in rhesus monkeys; format: in vivo; details: male rhesus monkeys
[1] = Biodistribution of [^11C]MP-10 in rats; format: in vivo, Sprague-Dawley rats; details: male rats, tail vein injection
[2] = In vivo metabolite analysis in rat brain; design: species or system Sprague-Dawley rats; details: HPLC radioactivity
[3] = In vivo metabolite analysis in rat plasma; design: species or system Sprague-Dawley rats; details: HPLC radioactivity
[4] = 2 min post injection of [^11C]MP-10
[5] = 20 min post injection of [^11C]MP-10
[6] = 40 min post injection of [^11C]MP-10
[7] = 60 min post injection of [^11C]MP-10

Biodistribution Blood ([1]; 5 min): 0.123 ± 0.033 ID%/gram | Biodistribution Cerebellum ([1]; 5 min): 0.133 ± 0.023 ID%/gram | Biodistribution Cortex ([1]; 5 min): 0.133 ± 0.025 ID%/gram | Biodistribution Fat ([1]; 5 min): 0.124 ± 0.059 ID%/gram | Biodistribution Heart ([1]; 5 min): 0.264 ± 0.080 ID%/gram | Biodistribution Hippocampus ([1]; 5 min): 0.169 ± 0.049 ID%/gram | Biodistribution Liver ([1]; 5 min): 2.766 ± 0.350 ID%/gram | Biodistribution Lung ([1]; 5 min): 0.317 ± 0.037 ID%/gram | Biodistribution Muscle ([1]; 5 min): 0.093 ± 0.021 ID%/gram | Biodistribution Striatum ([1]; 5 min): 0.300 ± 0.094 ID%/gram | Biodistribution Testes ([1]; 5 min): 0.160 ± 0.048 ID%/gram | Biodistribution Total brain ([1]; 5 min): 0.162 ± 0.025 ID%/gram | Biodistribution Blood ([1]; 30 min): 0.065 ± 0.016 ID%/gram | Biodistribution Cerebellum ([1]; 30 min): 0.036 ± 0.003 ID%/gram | Biodistribution Cortex ([1]; 30 min): 0.044 ± 0.009 ID%/gram | Biodistribution Fat ([1]; 30 min): 0.075 ± 0.020 ID%/gram | Biodistribution Heart ([1]; 30 min): 0.102 ± 0.041 ID%/gram | Biodistribution Hippocampus ([1]; 30 min): 0.050 ± 0.010 ID%/gram | Biodistribution Kidney ([1]; 30 min): 0.366 ± 0.075 ID%/gram | Biodistribution Liver ([1]; 30 min): 3.395 ± 0.448 ID%/gram | Biodistribution Lung ([1]; 30 min): 0.155 ± 0.053 ID%/gram | Biodistribution Muscle ([1]; 30 min): 0.059 ± 0.010 ID%/gram | Biodistribution Striatum ([1]; 30 min): 0.236 ± 0.035 ID%/gram | Biodistribution Testes ([1]; 30 min): 0.098 ± 0.006 ID%/gram | Biodistribution Total brain ([1]; 30 min): 0.066 ± 0.008 ID%/gram | Biodistribution Blood ([1]; 60 min): 0.047 ± 0.012 ID%/gram | Biodistribution Cerebellum ([1]; 60 min): 0.035 ± 0.003 ID%/gram | Biodistribution Cortex ([1]; 60 min): 0.044 ± 0.014 ID%/gram | Biodistribution Fat ([1]; 60 min): 0.100 ± 0.013 ID%/gram | Biodistribution Heart ([1]; 60 min): 0.068 ± 0.023 ID%/gram | Biodistribution Hippocampus ([1]; 60 min): 0.051 ± 0.009 ID%/gram | Biodistribution Kidney ([1]; 60 min): 0.314 ± 0.060 ID%/gram | Biodistribution Liver ([1]; 60 min): 3.364 ± 0.613 ID%/gram | Biodistribution Lung ([1]; 60 min): 0.090 ± 0.012 ID%/gram | Biodistribution Muscle ([1]; 60 min): 0.039 ± 0.011 ID%/gram | Biodistribution Striatum ([1]; 60 min): 0.164 ± 0.036 ID%/gram | Biodistribution Testes ([1]; 60 min): 0.068 ± 0.021 ID%/gram | Biodistribution Total brain ([1]; 60 min): 0.056 ± 0.006 ID%/gram
SMILES: [11CH3]n1cc(-c2ccncc2)c(-c2ccc(OCc3ccc4ccccc4n3)cc2)n1 [[^11C]MP-10, 2-((4-(1-[^11C]methyl-4-(pyridin-4-yl)-1H-pyrazol-3-yl)phenoxy)methyl)-quinoline]
blood brain barrier penetration (PDE10A): can readily penetrate the blood brain barrier

% Peak #1, Brain Tissue [2, 4]: 1.03% | % Peak #1, Brain Tissue [2, 5]: 3.45% | % Peak #1, Brain Tissue [2, 6]: 11.47% | % Peak #1, Brain Tissue [2, 7]: 15.87% | % Peak #1, Plasma [3, 4]: 1.23% | % Peak #1, Plasma [3, 5]: 19.13% | % Peak #1, Plasma [3, 6]: 35.19% | % Peak #1, Plasma [3, 7]: 40.72%
SMILES: [11CH3]n1cc(-c2ccncc2)c(-c2ccc(O)cc2)n1 [metabolite #1, 4-(1-[^11C]methyl-4-(pyridin-4-yl)-1H-pyrazol-3-yl)phenol]
